Results taken from PubChem BioAssay AID248 (DTP/NCI, 2004).
Where “and” joins values, the source holds several entries; their conditions need not be identical. Equal values may be shown once. Inconclusive results and toxic doses are left out. Cut-off read from the data, not from the text of the source: active = T/C of 150% or more; inactive = T/C below 125%.

System: L1210 leukemia ip in BDF1 mice, survival T/C
Assay: NCI In Vivo Anticancer Drug Screen. Data for tumor model L1210 Leukemia (intraperitoneal) in B6D2F1 (BDF1) mice
Conditions: endpoint: mean survival time, higher = longer survival
How it was run: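 Transplanted-tumor mice were given test agent; controls received vehicle only. Survival readings from the two groups were divided (treated over control).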

[1] = dose: 100.0 mg/kg/injection, schedule: Q01DX009 (ip), vehicle: saline sonified
[2] = dose: 100.0 mg/kg/injection, schedule: Q04DX003 (ip), vehicle: saline sonified
[3] = dose: 200.0 mg/kg/injection, schedule: Q01DX009 (ip), vehicle: saline sonified
[4] = dose: 200.0 mg/kg/injection, schedule: Q04DX003 (ip), vehicle: saline sonified
[5] = dose: 400.0 mg/kg/injection, schedule: Q01DX009 (ip), vehicle: saline sonified
[6] = dose: 400.0 mg/kg/injection, schedule: Q04DX003 (ip), vehicle: saline sonified
[7] = dose: 100.0 mg/kg/injection, schedule: Q01DX009 (ip), vehicle: Klucel (hydroxypropylcellulose) (HPC)
[8] = dose: 200.0 mg/kg/injection, schedule: Q01DX009 (ip), vehicle: Klucel (hydroxypropylcellulose) (HPC)
[9] = dose: 400.0 mg/kg/injection, schedule: Q01DX009 (ip), vehicle: Klucel (hydroxypropylcellulose) (HPC)

Measured: T/C

Nc1ccc(-c2ccc(N)c(Oc3ccccc3)c2)cc1Oc1ccccc1
inactive: dose: 100.0 mg/kg/injection, schedule: Q01DX001 (ip), vehicle: other 92 % of control | dose: 200.0 mg/kg/injection, schedule: Q01DX001 (ip), vehicle: other 97 % of control | dose: 400.0 mg/kg/injection, schedule: Q01DX001 (ip), vehicle: other 94 % of control

ClCCCCCCCCc1ccccc1
inactive: [1] 105 % of control | [2] 100 % of control | [3] 102 % of control | [4] 102 % of control | [5] 107 % of control | [6] 96 % of control

CC(=O)Oc1c(Br)c(-c2c(C)c(Br)c(C)c(Br)c2C)c(OC(C)=O)c(Br)c1-c1c(C)c(Br)c(C)c(Br)c1C
inactive: [7] 95 % of control | [8] 100 % of control | [9] 95 % of control

O=C(Nc1ccc(S(=O)(=O)F)cc1[N+](=O)[O-])c1ccc2ccccc2c1O
inactive: [7] 104 % of control | [8] 96 % of control | [9] 93 % of control

COc1ccccc1C1(O)c2ccccc2Sc2cccc(OC)c21 (stereo not given)
inactive: dose: 100.0 mg/kg/injection, schedule: Q04DX003 (ip), vehicle: saline with Tween-80 104 % of control | dose: 200.0 mg/kg/injection, schedule: Q04DX003 (ip), vehicle: saline with Tween-80 95 % of control | dose: 400.0 mg/kg/injection, schedule: Q04DX003 (ip), vehicle: saline with Tween-80 98 % of control

ClCCOCCOc1ccccc1OCCOCCCl
inactive: dose: 50.0 mg/kg/injection, schedule: Q04DX002 (ip), vehicle: saline with Tween-80 100 % of control | dose: 100.0 mg/kg/injection, schedule: Q04DX002 (ip), vehicle: saline with Tween-80 90 % of control

Cc1cc(OCc2nc(N)nc(N)c2-c2ccc(Cl)c(Cl)c2)ccc1NC(=O)c1cc(S(=O)(=O)F)ccc1Cl
inactive: dose: 100.0 mg/kg/injection, schedule: Q01DX001 (ip), vehicle: saline with Tween-80 98 % of control | dose: 200.0 mg/kg/injection, schedule: Q01DX001 (ip), vehicle: saline with Tween-80 93 % of control | dose: 400.0 mg/kg/injection, schedule: Q01DX001 (ip), vehicle: saline with Tween-80 97 % of control

CCOC(=O)NC(NC(=O)OCC)NC(=O)OCC
inactive: dose: 100.0 mg/kg/injection, schedule: Q01DX009 (ip), vehicle: saline 102 % of control | dose: 200.0 mg/kg/injection, schedule: Q01DX009 (ip), vehicle: saline 104 % of control | dose: 400.0 mg/kg/injection, schedule: Q01DX009 (ip), vehicle: saline 104 % of control

Cc1c(-[n+]2ccccc2)[nH]c2ccccc12
inactive: dose: 5.0 mg/kg/injection, schedule: Q01DX001 (ip), vehicle: saline 103 % of control | dose: 10.0 mg/kg/injection, schedule: Q01DX001 (ip), vehicle: saline 103 % of control | dose: 20.0 mg/kg/injection, schedule: Q01DX001 (ip), vehicle: saline 101 % of control | dose: 40.0 mg/kg/injection, schedule: Q01DX001 (ip), vehicle: saline 104 % of control | dose: 80.0 mg/kg/injection, schedule: Q01DX001 (ip), vehicle: saline 106 % of control | dose: 100.0 mg/kg/injection, schedule: Q01DX001 (ip), vehicle: saline 92 % of control

CCN(c1ccccc1)c1ccc([N+](=O)[O-])cc1[N+](=O)[O-]
inactive: dose: 100.0 mg/kg/injection, schedule: Q01DX001 (ip), vehicle: carboxymethylcellulose (CMC) 107 % of control | dose: 200.0 mg/kg/injection, schedule: Q01DX001 (ip), vehicle: carboxymethylcellulose (CMC) 91 % of control | dose: 400.0 mg/kg/injection, schedule: Q01DX001 (ip), vehicle: carboxymethylcellulose (CMC) 100 % of control

CCCCc1c(N)nc(N)nc1N
inactive: dose: 75.0 mg/kg/injection, schedule: Q01DX001 (ip), vehicle: saline with Tween-80 103 % of control

CN(C)/C(N)=N/N
inactive: dose: 15.0 mg/kg/injection, schedule: Q01DX Z (ip), vehicle: methylcellulose (MC) 113 % of control | dose: 30.0 mg/kg/injection, schedule: Q01DX Z (ip), vehicle: methylcellulose (MC) 109 % of control | dose: 60.0 mg/kg/injection, schedule: Q01DX Z (ip), vehicle: methylcellulose (MC) 100 % of control | dose: 120.0 mg/kg/injection, schedule: Q01DX Z (ip), vehicle: methylcellulose (MC) 103 % of control | dose: 125.0 mg/kg/injection, schedule: Q01DX Z (oral), vehicle: methylcellulose (MC) 90 % of control | dose: 240.0 mg/kg/injection, schedule: Q01DX Z (ip), vehicle: methylcellulose (MC) 101 % of control | dose: 250.0 mg/kg/injection, schedule: Q01DX Z (oral), vehicle: methylcellulose (MC) 101 % of control | dose: 375.0 mg/kg/injection, schedule: Q01DX Z (ip), vehicle: methylcellulose (MC) 110 % of control | dose: 480.0 mg/kg/injection, schedule: Q01DX Z (ip), vehicle: methylcellulose (MC) 107 % of control

Cc1ccc(C)c(NC(=O)Nc2ccccc2Cl)c1
inactive: dose: 100.0 mg/kg/injection, schedule: Q01DX009 (ip), vehicle: gum acacia 90 % of control | dose: 100.0 mg/kg/injection, schedule: Q04DX003 (ip), vehicle: gum acacia 93 % of control | dose: 200.0 mg/kg/injection, schedule: Q01DX009 (ip), vehicle: gum acacia 90 % of control | dose: 200.0 mg/kg/injection, schedule: Q04DX003 (ip), vehicle: gum acacia 91 % of control | dose: 400.0 mg/kg/injection, schedule: Q01DX009 (ip), vehicle: gum acacia 90 % of control | dose: 400.0 mg/kg/injection, schedule: Q04DX003 (ip), vehicle: gum acacia 94 % of control

CCOC(=O)CNC(=O)Nc1cccc(Cl)c1Cl
inactive: [7] 102 % of control | [8] 98 % of control | [9] 98 % of control

O=C1/C(=C/c2ccccn2)COc2ccccc21
inactive: dose: 100.0 mg/kg/injection, schedule: Q04DX003 (ip), vehicle: carboxymethylcellulose (CMC) 93 % of control | dose: 200.0 mg/kg/injection, schedule: Q04DX003 (ip), vehicle: carboxymethylcellulose (CMC) 95 % of control | dose: 400.0 mg/kg/injection, schedule: Q04DX003 (ip), vehicle: carboxymethylcellulose (CMC) 103 % of control

O=C1C(c2ccccc2)CN1CC1CCCCC1 (stereo not given)
inactive: dose: 100.0 mg/kg/injection, schedule: Q01DX001 (ip), vehicle: Klucel (hydroxypropylcellulose) (HPC) 98 % of control | dose: 200.0 mg/kg/injection, schedule: Q01DX001 (ip), vehicle: Klucel (hydroxypropylcellulose) (HPC) 101 % of control | dose: 400.0 mg/kg/injection, schedule: Q01DX001 (ip), vehicle: Klucel (hydroxypropylcellulose) (HPC) 95 % of control

NCCc1ccc(NC(=O)c2ccc(C(=O)Nc3ccc(CCN)cc3)c([N+](=O)[O-])c2)cc1
inactive: dose: 1.56 mg/kg/injection, schedule: Q01DX015 (ip), vehicle: methylcellulose (MC) 94 % of control | dose: 3.12 mg/kg/injection, schedule: Q01DX015 (ip), vehicle: methylcellulose (MC) 94 % of control | dose: 6.25 mg/kg/injection, schedule: Q01DX015 (ip), vehicle: methylcellulose (MC) 94 % of control | dose: 12.5 mg/kg/injection, schedule: Q01DX015 (ip), vehicle: methylcellulose (MC) 98 % of control and 92 % of control | dose: 25.0 mg/kg/injection, schedule: Q01DX015 (ip), vehicle: methylcellulose (MC) 104 % of control

Nc1ncnc2nc[nH]c12.[Cl][Pt][Cl]
inactive: dose: 100.0 mg/kg/injection, schedule: Q01DX009 (ip), vehicle: water 101 % of control | dose: 100.0 mg/kg/injection, schedule: Q04DX003 (ip), vehicle: water 94 % of control | dose: 200.0 mg/kg/injection, schedule: Q01DX009 (ip), vehicle: water 96 % of control | dose: 200.0 mg/kg/injection, schedule: Q04DX003 (ip), vehicle: water 87 % of control | dose: 400.0 mg/kg/injection, schedule: Q01DX009 (ip), vehicle: water 90 % of control | dose: 400.0 mg/kg/injection, schedule: Q04DX003 (ip), vehicle: water 94 % of control

Cc1cc2nc(N)[nH]c2cc1C
inactive: dose: 12.5 mg/kg/injection, schedule: Q04DX002 (ip), vehicle: saline + alcohol 96 % of control | dose: 25.0 mg/kg/injection, schedule: Q04DX002 (ip), vehicle: saline + alcohol 96 % of control | dose: 50.0 mg/kg/injection, schedule: Q04DX002 (ip), vehicle: saline + alcohol 100 % of control

Cc1ccc(S(=O)(=O)/N=S(/C)c2ccccc2)cc1 (stereo not given)
inactive: [1] 95 % of control | [2] 94 % of control | [3] 108 % of control | [4] 106 % of control | [5] 97 % of control | [6] 103 % of control
